What all share (type): functional
Assay [1] has as its system Melanoma cell. Briefly: In vitro cytotoxicity against melanoma cancer cells. As to conditions: Homo sapiens.
Assay [2] has as its system Colon carcinoma cell. Briefly: In vitro cytotoxicity against colon cancer cells. As to conditions: Homo sapiens.
A short description of assay [3]: In vitro cytotoxicity against Leukemia cancer cells. As to conditions: Homo sapiens, Cancer cell lines.
For assay [4], the system named is Breast carcinoma cell. Briefly: In vitro cytotoxicity against breast cancer cells. As to conditions: Homo sapiens.
Assay [5] relates to Prostatic carcinoma cell. Briefly: In vitro cytotoxicity against prostate cancer cells. As to conditions: Homo sapiens, read-out: Log LC50 (the source's name) (converted).
The test system of assay [6] is CNS carcinoma cell. Briefly: In vitro cytotoxicity against CNS cancer cells. As to conditions: Homo sapiens.
For assay [7], the system named is Ovarian carcinoma cell. Briefly: In vitro cytotoxicity against ovarian cancer cells. As to conditions: Homo sapiens.
The species named for assay [8] is Homo sapiens. The assay is described as follows: In vitro cytotoxicity against non-small-cell lung cancer cells. As to conditions: Cancer cell lines, read-out: Log LC50 (the source's name) (converted).
Assay [9] deals with Renal cancer cell line. Briefly: (§1) In vitro cytotoxicity against renal cancer cells. As to conditions: Homo sapiens, read-out: Log LC50 (the source's name) (converted).
Assay [10] in a line: as §1. As to conditions: Homo sapiens, Cancer cell lines; read-out: Log LC50 (the source's name) (converted).

The term LC50 denotes the concentration lethal to half of the exposed cells or organisms. On to `CC(=O)OC1CCc2c3c(n(C(C)=O)c21)C(=O)C(N1CC1)=C(C)C3=O` (stereo not drawn), for which the LC50 is 8.71 µM in assay [1], 17.8 µM in assay [6] and 66.1 µM in assay [7]. In assay [2], this compound showed an LC50 (50% lethal concentration) of 17 µM. The same compound showed an LC50 (lethal concentration 50%) in assay [3] above 100 µM. This compound also gave an LC50 (concentration killing 50% of cells) in [4] of 31.6 µM. The CC50 in [5] is 19.5 µM; in [8] it was 38 µM; in assay [9] it was 16.6 µM.
`CC1=C(N2CC2)C(=O)c2[nH]c(C)c(C)c2C1=O`: the median lethal concentration (LC50) in assay [1] is 70.8 µM; in [6] it was above 100 µM; in [7], above 100 µM. The compound further gave an LC50 (50% lethal concentration) in assay [2] of 89.1 µM. This compound gave an LC50 (lethal concentration 50%) in [3] above 100 µM. The LC50 (concentration killing 50% of cells) in [4] was above 100 µM. Further, the CC50 in assay [5] was above 100 µM; in assay [8] it was 50.1 µM; in [9], above 100 µM.
`CC(=O)OC1CCc2c1[nH]c1c2C(=O)C(C)=C(N2CC2)C1=O` (stereo not drawn): the values for the LC50 in [1], in assay [6] and in assay [7] were 10.2 µM, 20 µM and 39.8 µM, respectively. The compound further showed an LC50 (50% lethal concentration) in [2] of 14.1 µM. In addition, the LC50 (lethal concentration 50%) in assay [3] was 50.1 µM. Further, the LC50 (concentration killing 50% of cells) in [4] was 29.5 µM. The CC50 was 23.4 µM in [5], 22.4 µM in assay [8] and 19.1 µM in assay [9].
Regarding `CC1=C(N2CC2)C(=O)c2[nH]c(CO)c(C)c2C1=O`, the values for the LC50 in [1], in [6] and in assay [7] were 39.8 µM, 89.1 µM and above 100 µM, respectively. Also, in assay [2], the LC50 (50% lethal concentration) was 63.1 µM. The compound also showed an LC50 (lethal concentration 50%) in assay [3] above 100 µM. Also, in assay [4], the LC50 (concentration killing 50% of cells) was 89.1 µM. The CC50 in assay [5] was 63.1 µM; in assay [8] it was 79.4 µM; in assay [10] it was 58.9 µM.
With `COC1CCc2c1[nH]c1c2C(=O)C(C)=C(N2CC2)C1=O` (stereo not drawn), the values for the LC50 in [1], in assay [6] and in assay [7] were 12 µM, 67.6 µM and above 100 µM, respectively. The LC50 (50% lethal concentration) in assay [2] was 47.9 µM. Further, the LC50 (lethal concentration 50%) in assay [3] is 87.1 µM. The compound further had an LC50 (concentration killing 50% of cells) in [4] of 46.8 µM. The CC50 in assay [5] is 34.7 µM; in assay [8], 63.1 µM; in assay [10] it was 26.3 µM.
On to `CC1=C(N2CC2)C(=O)c2c([nH]c(C)c2C)C1=O`, for which the CC50 was above 100 µM in assay [5], 51.3 µM in [8] and above 100 µM in [10].
For the compound `CC(=O)OCc1[nH]c2c(c1C)C(=O)C(N1CC1)=C(C)C2=O`, the LC50 was 2.29 µM in assay [1], 14.8 µM in assay [6] and 34.7 µM in [7]. Besides, the LC50 (50% lethal concentration) in assay [2] was 8.32 µM. The compound also showed an LC50 (lethal concentration 50%) in assay [3] above 100 µM. This compound also had an LC50 (concentration killing 50% of cells) in assay [4] of 26.9 µM. Further, the results for the CC50 in assay [5], in [8] and in assay [9] were 9.77 µM, 33.1 µM and 28.8 µM, respectively.
`CC1=C(N2CC2)C(=O)c2[nH]c3c(c2C1=O)CCC3=O`: the LC50 in assay [1] was 1.02 µM; in [6], 7.41 µM; in [7] it was 13.8 µM. This compound also had an LC50 (50% lethal concentration) in assay [2] of 3.63 µM. In [3], this compound had an LC50 (lethal concentration 50%) above 100 µM. In assay [4], this compound gave an LC50 (concentration killing 50% of cells) of 12.6 µM. For the same compound, the CC50 in [5] is 15.8 µM; in assay [8], 4.27 µM; in [9] it was 4.57 µM.
As to `CC1=C(N2CC2)C(=O)c2c([nH]c(CO)c2C)C1=O`, the 50% lethal concentration (LC50) in [1] was 4.07 µM; in [6], above 100 µM; in assay [7] it was above 100 µM. Besides, in [2], the LC50 (50% lethal concentration) was 47.9 µM. Moreover, the LC50 (lethal concentration 50%) in assay [3] was above 100 µM. In assay [4], this compound had an LC50 (concentration killing 50% of cells) of 27.5 µM. In addition, the CC50 in assay [5] was 16.6 µM; in assay [8], 42.7 µM; in [9], 29.5 µM.
With `CC1=C(N2CC2)C(=O)c2[nH]c3c(c2C1=O)CCC3O` (stereo not drawn), the values for the LC50 in assay [1], in [6] and in assay [7] were 14.1 µM, 28.8 µM and 89.1 µM, respectively. Besides, the LC50 (50% lethal concentration) in assay [2] was 35.5 µM. This compound showed an LC50 (lethal concentration 50%) in assay [3] of 87.1 µM. In addition, in assay [4], the LC50 (concentration killing 50% of cells) was 33.9 µM. Besides, the CC50 was 31.6 µM in assay [5], 60.3 µM in assay [8] and 18.6 µM in assay [10].
Consider `CC(=O)OCc1[nH]c2c(c1C)C(=O)C(C)=C(N1CC1)C2=O`, for which the 50% lethal concentration (LC50) in assay [1] is 70.8 µM; in assay [6], above 100 µM; in assay [7], above 100 µM. This compound had an LC50 (50% lethal concentration) in assay [2] above 100 µM. In assay [3], this compound had an LC50 (lethal concentration 50%) above 100 µM. The compound also had an LC50 (concentration killing 50% of cells) in assay [4] above 100 µM. Besides, the results for the CC50 in assay [5], in assay [8] and in [10] were above 100 µM, 79.4 µM and 72.4 µM, respectively.

The record behind these values is ChEMBL document CHEMBL1133583, “Design of cancer-specific antitumor agents based on aziridinylcyclopent[b]indoloquinones” (J Med Chem, 2000).
